From ChEMBL document CHEMBL4312020, “Design, synthesis and biological evaluation of oseltamivir derivatives containing pyridyl group as potent inhibitors of neuraminidase for influenza A” (Eur J Med Chem, 2020)

Assays:
[1] = molecular target: Neuraminidase (Influenza A virus (A/Puerto Rico/8/1934(H1N1))) (UniProt P03468); conditions: Influenza A virus (A/Anhui/1/2005(H5N1)); at 100 µM
[2] = molecular target: Neuraminidase (Influenza A virus (A/Puerto Rico/8/1934(H1N1))) (UniProt P03468); conditions: Influenza A virus (A/Anhui/1/2005(H5N1)); at 10 µM
[3] = system: Influenza A virus; test: microbe, parasite or virus in culture; conditions: A/Puerto Rico/8/1934(H1N1), MDCK, 72 h
[4] = system: Influenza A virus; test: microbe, parasite or virus in culture; conditions: (A/LiaoNing-ZhenXing/1109/2010(H1N1), MDCK, 72 h
[5] = in vitro; conditions: dog, MDCK cells
[6] = molecular target: Neuraminidase (Influenza A virus (A/Puerto Rico/8/1934(H1N1))) (UniProt P03468); conditions: Influenza A virus (A/Anhui/1/2005(H5N1)); at 1 µM
[7] = molecular target: Neuraminidase (Influenza A virus (A/Puerto Rico/8/1934(H1N1)), UniProt P03468); test: Inhibition of Influenza A virus A/WSN/1933(H1N1) Neuraminidase using MU-NANA as substrate preincubated for 30 mins followed by substrate addition and measured after 1 hr by spectrofluorometry relative to control
Neuraminidase (Influenza A virus (A/Puerto Rico/8/1934(H1N1)), UniProt P03468), sequence (P03468 whole entry): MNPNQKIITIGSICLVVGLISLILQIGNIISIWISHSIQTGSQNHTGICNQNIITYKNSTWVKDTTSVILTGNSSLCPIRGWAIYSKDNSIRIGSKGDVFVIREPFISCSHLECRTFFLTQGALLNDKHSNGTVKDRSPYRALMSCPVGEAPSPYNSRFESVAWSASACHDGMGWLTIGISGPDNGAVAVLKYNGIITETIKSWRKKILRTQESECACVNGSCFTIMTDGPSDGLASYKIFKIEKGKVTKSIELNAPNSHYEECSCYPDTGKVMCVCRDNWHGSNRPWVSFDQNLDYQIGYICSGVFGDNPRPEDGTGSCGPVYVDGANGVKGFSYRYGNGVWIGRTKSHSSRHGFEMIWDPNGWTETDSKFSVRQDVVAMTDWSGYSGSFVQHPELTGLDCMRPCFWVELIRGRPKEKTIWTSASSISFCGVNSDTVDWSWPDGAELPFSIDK

[8] = Inhibition of Influenza A virus A/Taiwan/3446/2002(H3N2) Neuraminidase using MU-NANA as substrate preincubated for 30 mins followed by substrate addition and measured after 1 hr by spectrofluorometry relative to control
[9] = Stability in human plasma assessed as compound remaining incubated for 60 mins by LC-MS/MS analysis; format: ADME, cell-free; conditions: read-out: Stability
[10] = Stability in human plasma assessed as compound remaining incubated for 0 mins by LC-MS/MS analysis; format: ADME, cell-free; conditions: read-out: Stability
[11] = Stability in human plasma assessed as compound remaining incubated for 30 mins by LC-MS/MS analysis; format: ADME, cell-free; conditions: read-out: Stability
[12] = Stability in human plasma assessed as compound remaining incubated for 10 mins by LC-MS/MS analysis; format: ADME, cell-free; conditions: read-out: Stability
[13] = Stability in human plasma assessed as compound remaining incubated for 120 mins by LC-MS/MS analysis; format: ADME, cell-free; conditions: read-out: Stability
[14] = in vitro; conditions: rat, liver microsomes
[15] = in vitro; conditions: human, liver microsomes
[16] = AUC in Sprague-Dawley rat at 50 mg/kg, po measured upto 24 hrs by LC-MS/MS analysis; format: ADME, organism-based; set-up: dose 50 mg/kg, time < 24 hr, route oral; conditions: in vivo
[17] = Cmax in Sprague-Dawley rat at 50 mg/kg, po measured upto 24 hrs by LC-MS/MS analysis; format: ADME, organism-based; set-up: dose 50 mg/kg, route oral; conditions: in vivo
[18] = Oral bioavailability in Sprague-Dawley rat at 50 mg/kg measured upto 24 hrs by LC-MS/MS analysis; format: ADME, organism-based; conditions: in vivo
[19] = AUC in Sprague-Dawley rat at 10 mg/kg, iv measured upto 24 hrs by LC-MS/MS analysis; format: ADME, organism-based; set-up: dose 10 mg/kg, time < 24 hr, route intravenous; conditions: in vivo
[20] = in vitro; conditions: rat, liver microsomes; remark: listed apart in the source
[21] = in vitro; conditions: human, liver microsomes; remark: listed apart in the source
[22] = MRT in Sprague-Dawley rat at 50 mg/kg, po measured upto 24 hrs by LC-MS/MS analysis; format: ADME, organism-based; conditions: in vivo
[23] = molecular target: Neuraminidase (Influenza A virus (A/Puerto Rico/8/1934(H1N1)), UniProt P03468); set-up: species or system Influenza A virus (A/Anhui/1/2005(H5N1))
[24] = Bioavailability in Sprague-Dawley rat at 10 mg/kg, iv measured upto 24 hrs by LC-MS/MS analysis; format: ADME, organism-based; conditions: in vivo
[25] = MRT in Sprague-Dawley rat at 10 mg/kg, iv measured upto 24 hrs by LC-MS/MS analysis; format: ADME, organism-based; conditions: in vivo
[26] = Half life in Sprague-Dawley rat at 10 mg/kg, iv measured upto 24 hrs by LC-MS/MS analysis; format: ADME, organism-based; conditions: in vivo
[27] = Half life in Sprague-Dawley rat at 50 mg/kg, po measured upto 24 hrs by LC-MS/MS analysis; format: ADME, organism-based; conditions: in vivo
[28] = Tmax in Sprague-Dawley rat at 50 mg/kg, po measured upto 24 hrs by LC-MS/MS analysis; format: ADME, organism-based; conditions: in vivo

Neuraminidase (Influenza A virus (A/Puerto Rico/8/1934(H1N1))), sequence (P03468 whole entry): as above

## CCC(CC)O[C@@H]1C=C(C(=O)O)C[C@H](Nc2ncc(Br)cc2N)[C@H]1NC(C)=O
[1]
  inhibition: 55.9%
[2]
  inhibition: 26.8%

## CCC(CC)O[C@@H]1C=C(C(=O)O)C[C@H](N)[C@H]1NC(C)=O [OSELTAMIVIR CARBOXYLATE]
[3]
  EC50: 2.49 µM
[4]
  EC50: 67.5 µM
[5]
  CC50 at 72 h: > 1000 µM

## CCC(CC)O[C@@H]1C=C(C(=O)O)C[C@H](Nc2ccc(NC(C)=O)cn2)[C@H]1NC(C)=O
[1]
  inhibition: 38.7%
[6]
  inhibition: 9.6%

## CCC(CC)O[C@@H]1C=C(C(=O)O)C[C@H](Nc2ccc(NC(=O)c3ccccc3)cn2)[C@H]1NC(C)=O
[1]
  inhibition: 18.6%

## CCC(CC)O[C@@H]1C=C(C(=O)O)C[C@H](Nc2ncccc2NC(=O)c2ccccc2)[C@H]1NC(C)=O
[1]
  inhibition: 7.6%

## CCCC(=O)Nc1ccc(OC)nc1N[C@H]1CC(C(=O)O)=C[C@@H](OC(CC)CC)[C@@H]1NC(C)=O
[1]
  inhibition: 76.3%
[6]
  inhibition: 16%

## CCC(CC)O[C@@H]1C=C(C(=O)O)C[C@H](Nc2nc(OC)ccc2N)[C@H]1NC(C)=O
[1]
  inhibition: 81.4%
[2]
  inhibition: 41.3%

## CCC(CC)O[C@@H]1C=C(C(=O)O)C[C@H](Nc2nccc(C)c2N)[C@H]1NC(C)=O
[1]
  inhibition: 24.2%
[2]
  inhibition: 10.7%

## CC(=O)N[C@H]1[C@H]([C@H](O)[C@H](O)CO)OC(C(=O)O)=C[C@@H]1NC(=N)NC(=O)CSc1cccc2ccccc12
[7]
  IC50: 0.0023 µM
[8]
  IC50: 0.0029 µM

## CCC(CC)O[C@@H]1C=C(C(=O)O)C[C@H](Nc2ncc(Br)cc2NC(=O)c2ccccc2)[C@H]1NC(C)=O
[1]
  inhibition: 36.9%

## CCC(CC)O[C@@H]1C=C(C(=O)O)C[C@H](Nc2nc(OC)ccc2[N+](=O)[O-])[C@H]1NC(C)=O
[1]
  inhibition: 82.9%
[6]
  inhibition: 27.9%

## CCC(CC)O[C@@H]1C=C(C(=O)O)C[C@H](Nc2ncccc2[N+](=O)[O-])[C@H]1NC(C)=O
[1]
  inhibition: 76.1%
[6]
  inhibition: 9.1%

## CCC(CC)O[C@@H]1C=C(C(=O)O)C[C@H](Nc2nc(OC)ccc2NC(C)=O)[C@H]1NC(C)=O
[1]
  inhibition: 75.7%
[6]
  inhibition: 10.1%

## CCC(CC)O[C@@H]1C=C(C(=O)O)C[C@H](Nc2nc(OC)ccc2NC(=O)c2ccccc2)[C@H]1NC(C)=O
[1]
  inhibition: 70.6%

## CCCC(=O)Nc1cccnc1N[C@H]1CC(C(=O)O)=C[C@@H](OC(CC)CC)[C@@H]1NC(C)=O
[1]
  inhibition: 22.1%

## CCC(CC)O[C@@H]1C=C(C(=O)O)C[C@H](Nc2ncc(Br)cc2[N+](=O)[O-])[C@H]1NC(C)=O
[1]
  inhibition: 54.3%

## CCC(CC)O[C@@H]1C=C(C(=O)O)C[C@H](Nc2ncc(C)cc2N)[C@H]1NC(C)=O
[1]
  inhibition: 46.8%
[2]
  inhibition: 25.9%

## CCC(=O)Nc1ccc(OC)nc1N[C@H]1CC(C(=O)O)=C[C@@H](OC(CC)CC)[C@@H]1NC(C)=O
[1]
  inhibition: 10.7%

## CC(C)[N+](C)(CCOC(=O)C1c2ccccc2Oc2ccccc21)C(C)C [PROPANTHELINE BROMIDE]
[9]
  remaining at 1 h: 10.1%
[10]
  remaining at 0 h: 100%
[11]
  remaining at 0.5 h: 34.8%
[12]
  remaining at 10 min: 68.2%
[13]
  remaining at 2 h: 0.7%

## CCC(CC)O[C@@H]1C=C(C(=O)O)C[C@H](Nc2ccc([N+](=O)[O-])cn2)[C@H]1NC(C)=O
[1]
  inhibition: 87.1%
[6]
  inhibition: 8.9%

## CCCC(=O)Nc1cc(Br)cnc1N[C@H]1CC(C(=O)O)=C[C@@H](OC(CC)CC)[C@@H]1NC(C)=O
[1]
  inhibition: 41.5%
[6]
  inhibition: 6.8%

## CCC(CC)O[C@@H]1C=C(C(=O)O)C[C@H](Nc2ncc(Br)cc2NC(=O)C(C)C)[C@H]1NC(C)=O
[1]
  inhibition: 79.3%
[6]
  inhibition: 19.1%

## O=C(O)Cc1ccccc1Nc1c(Cl)cccc1Cl [DICLOFENAC]
[14]
  half-life at 1 h: 17.1 min

## CCC(CC)O[C@@H]1C=C(C(=O)O)C[C@H](Nc2ncccc2N)[C@H]1NC(C)=O
[3]
  EC50: 12.7 µM
[15]
  remaining at 1 h: 87.5%
[16]
  AUC at 24 h: 0.358 µg·h/mL
[9]
  remaining at 1 h: 113%
[17]
  Cmax: 0.253 µg/mL
[18]
  bioavailability: 1.58%
[19]
  AUC at 24 h: 4.54 µg·h/mL
[1]
  inhibition: 92.4%
[4]
  EC50: 14.3 µM
[2]
  inhibition: 87.6%
[20]
  remaining at 1 h: 85.5%
[21]
  half-life at 1 h: > 145 min
[22]
  MRT: 127 min
[14]
  half-life at 1 h: > 145 min
[23]
  IC50: 0.32 µM
[24]
  F: 100%
[25]
  MRT: 11.4 min
[10]
  remaining at 0 h: 100%
[26]
  half-life: 30.6 min
[11]
  remaining at 0.5 h: 103%
[12]
  remaining at 10 min: 95.1%
[27]
  half-life: 94.2 min
[28]
  Tmax: 19.8 min
[13]
  remaining at 2 h: 102%

## CCC(CC)O[C@@H]1C=C(C(=O)O)C[C@H](Nc2ncc(Br)cc2NC(C)=O)[C@H]1NC(C)=O
[1]
  inhibition: 46.7%

## CCC(CC)O[C@@H]1C=C(C(=O)O)C[C@H](Nc2ccc(N)cn2)[C@H]1NC(C)=O
[1]
  inhibition: 67.7%
[2]
  inhibition: 30%
